{"source": "ChEMBL document CHEMBL1129206", "about": "“Probing the specificity of the S1 binding site of M222 mutants of subtilisin B. lentus with boronic acid inhibitors” (Bioorg Med Chem Lett, 1996)", "set-up_in_all_cases": "species or system Lederbergia lenta", "key": {"Subtilisin BL [1]": {"target": "Subtilisin BL (Bacillus lentus, UniProt P29599, M222C)"}, "Subtilisin BL [2]": {"target": "Subtilisin BL (Bacillus lentus, UniProt P29599, M222S)"}, "Subtilisin BL [3]": {"target": "T1, Subtilisin BL (Bacillus lentus, UniProt P29599)", "T1 sequence (P29599 whole entry)": "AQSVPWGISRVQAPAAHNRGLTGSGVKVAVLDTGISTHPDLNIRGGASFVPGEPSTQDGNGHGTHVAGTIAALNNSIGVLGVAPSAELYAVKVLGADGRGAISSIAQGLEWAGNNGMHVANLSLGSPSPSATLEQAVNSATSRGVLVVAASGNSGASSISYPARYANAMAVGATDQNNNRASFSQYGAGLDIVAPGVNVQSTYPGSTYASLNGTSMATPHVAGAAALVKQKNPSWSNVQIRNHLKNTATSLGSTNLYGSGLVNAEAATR", "test": "Competitive inhibition of Subtilisin BL wild type enzyme from Bacillus lentus"}}, "data": [{"molecule": "OB(O)c1cccc(-c2ccccc2)c1", "values": [{"measurement": "Ki", "setting": "Subtilisin BL [1]", "result": 31, "unit": "µM"}, {"measurement": "Ki", "setting": "Subtilisin BL [2]", "result": 69, "unit": "µM"}, {"measurement": "Ki", "setting": "Subtilisin BL [3]", "result": 327, "unit": "µM"}]}, {"molecule": "OB(O)c1ccc(Cl)cc1Cl", "values": [{"measurement": "Ki", "setting": "Subtilisin BL [1]", "result": 18, "unit": "µM"}, {"measurement": "Ki", "setting": "Subtilisin BL [2]", "result": 8, "unit": "µM"}, {"measurement": "Ki", "setting": "Subtilisin BL [3]", "result": 9.2, "unit": "µM"}]}, {"molecule": "Nc1cccc(B(O)O)c1", "values": [{"measurement": "Ki", "setting": "Subtilisin BL [1]", "result": 204, "unit": "µM"}, {"measurement": "Ki", "setting": "Subtilisin BL [2]", "result": 73, "unit": "µM"}, {"measurement": "Ki", "setting": "Subtilisin BL [3]", "result": 150, "unit": "µM"}]}, {"molecule": "OB(O)c1ccc(Br)cc1", "values": [{"measurement": "Ki", "setting": "Subtilisin BL [1]", "result": 23, "unit": "µM"}, {"measurement": "Ki", "setting": "Subtilisin BL [2]", "result": 10, "unit": "µM"}, {"measurement": "Ki", "setting": "Subtilisin BL [3]", "result": 23, "unit": "µM"}]}, {"molecule": "COc1ccc(B(O)O)cc1", "values": [{"measurement": "Ki", "setting": "Subtilisin BL [1]", "result": 757, "unit": "µM"}, {"measurement": "Ki", "setting": "Subtilisin BL [2]", "result": 310, "unit": "µM"}, {"measurement": "Ki", "setting": "Subtilisin BL [3]", "result": 577, "unit": "µM"}]}, {"molecule": "OB(O)CCc1ccc(Cl)cc1", "values": [{"measurement": "Ki", "setting": "Subtilisin BL [1]", "result": 233, "unit": "µM"}, {"measurement": "Ki", "setting": "Subtilisin BL [2]", "result": 110, "unit": "µM"}, {"measurement": "Ki", "setting": "Subtilisin BL [3]", "result": 325, "unit": "µM"}]}, {"molecule": "OB(O)CCc1ccc2ccccc2c1", "values": [{"measurement": "Ki", "setting": "Subtilisin BL [1]", "result": "> 1000", "unit": "µM"}, {"measurement": "Ki", "setting": "Subtilisin BL [2]", "result": "> 1000", "unit": "µM"}, {"measurement": "Ki", "setting": "Subtilisin BL [3]", "result": 1580, "unit": "µM"}]}, {"molecule": "COc1ccc(CCB(O)O)cc1", "values": [{"measurement": "Ki", "setting": "Subtilisin BL [1]", "result": 314, "unit": "µM"}, {"measurement": "Ki", "setting": "Subtilisin BL [2]", "result": 219, "unit": "µM"}, {"measurement": "Ki", "setting": "Subtilisin BL [3]", "result": 986, "unit": "µM"}]}, {"molecule": "OB(O)c1ccccc1", "note": "[PHENYLBORONIC ACID]", "values": [{"measurement": "Ki", "setting": "Subtilisin BL [1]", "result": 155, "unit": "µM"}, {"measurement": "Ki", "setting": "Subtilisin BL [2]", "result": 96, "unit": "µM"}, {"measurement": "Ki", "setting": "Subtilisin BL [3]", "result": 141, "unit": "µM"}]}]}
